# Data: EP2186507A2, “A liquid pharmaceutical formulation comprising nicotine for the administration to the oral cavity” (McNeil AB, priority 2001, dated 2003)
# Read-outs that look alike come from different tables or passages of the source.
# How the values were obtained:
# [1] = Description: Absorption of nicotine from the oral cavity to the systemic circulation is dependent on the pH of the saliva and the pKa of nicotine, which is about 7.8. Assuming a pH of the saliva of 6.8 only about 10% of the nicotine in saliva will be in the free base form. Thus, in order to promote absorption of nicotine in a free base form, which is the form predominantly absorbed through the mucosa, the pH of the saliva must be increased. At a pH of 8.8 about 90% of the nicotine in saliva will then be in the free base form.
# [2] = Merck Index; cited from earlier work
structure (smiles),measurement,setting,value
"CN1CCCC1c1cccnc1 (stereo not drawn) [nicotine, 3-(1-methyl-2-pyrrolidinyl)-pyridine]",nicotine in saliva in the free base form,[1]; assuming a pH of the saliva of 6.8,about 10%
same,nicotine in saliva in the free base form,[1]; at a pH of 8.8,about 90%
same,amount that may kill an adult,[2],Approximately forty
